Read-outs that look alike come from different tables or passages of the source.

Experimental findings from US20170152226A1, “FUNCTIONALISED AND SUBSTITUTED INDOLES AS ANTI-CANCER AGENTS” (Novogen Ltd., priority 2014, published 2017) are described below.

Assay type in all cases: cell-based
In test [1] the test system is Tpm3.1-containing actin filaments in SK-N-SH neuroblastoma cells. The test is described as follows: Microfilament disruption assay, γ9d staining. Particulars: 0-40 μM, 24 hours post treatment. How it is done: FIG. 2: Imaging and quantitation of actin filaments in SK-N-SH neuroblastoma cells treated with compound (A) 3504, (B) 3507 and (C) 3516. Cells were stained with γ9d (sheep polycolonal, 1:100) followed by 488-conjugated secondary (1:1000) and DAPI to visualize the Tpm3.1 containing filament bundles and the nucleus, respectively. Shown in the top panel is a representative grey scale immunofluorescent image from control (vehicle alone), 5 μM and 10 μM treated cells. […] The coloured lines indicate the detected actin filaments. Also shown is the quantitation of cell number, filament number/cell and filament number/cell area (μM^2). […]
(§1) The ability of compounds 3504, 3507 and 3516 to disrupt the total actin cytoskeleton (FIG. 1) and to specifically target Tpm3.1-containing actin filaments (FIG. 2) was assessed in vitro using the microfilament disruption assay.
(§2) Briefly, SK-N-SH neuroblastoma cells were seeded at 1800 cells/well in a 384 Perkin Elmer High Content Imaging “View” plate and left to plate down 24 hours prior to treatment. […] Images were then exported and changes in the organization and numbers of actin filaments within the cell were quantitated using a linear feature detection algorithm developed by the CSIRO (Vindin et al., 2014). […] It is these “ridge lines” that correspond to actin filament bundles and allow us to quantitate the number of filaments per cell.

In test [2] the test system is total actin cytoskeleton in SK-N-SH neuroblastoma cells. The test is described as follows: Microfilament disruption assay, phalloidin staining. Conditions: 0-40 μM, 24 hours post treatment. How it is done: FIG. 1: Imaging and quantitation of actin filaments in SK-N-SH neuroblastoma cells treated with compound (A) 3504, (B) 3507 and (C) 3516. Cells were stained with 488-Atto-Phallodin and DAPI to visualize the actin filament bundles and the nucleus, respectively. Shown in the top panel is a representative grey scale immunofluorescent image from control (vehicle alone), 5 μM and 10 μM treated cells. […] The coloured lines indicate the detected actin filaments. Also shown is the quantitation of cell number, filament number/cell and filament number/cell area (μM^2). […]
as §1, §2

The test system of another test is DU145. The test can be described thus: Anti-proliferative activity, cell-titre luminescent viability assay. Particulars: Homo sapiens, read-out: IC50 Prostate DU145. The gist of the method:
(§3)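 Cells attached for 24 h at 37° C, 5% CO2, then received compound (0.03, 0.3, 3, 30 μM, or 0.1–30 μM in six steps) for 72 h. Viability was read by cell-titre luminescence after 30 min and normalized to untreated or vehicle control. IC50 came from linear regression of semi-log plots, or EC50 from variable-slope sigmoidal nonlinear regression, depending on compound.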

A further test deals with A549. Described as above. Particulars: Homo sapiens, read-out: IC50 Lung (NSLC) A549. The gist of the method:
as §3

The subject of another test is MDA-MB-231. The description is as above. Conditions: Homo sapiens, read-out: IC50 Breast MDA-MB-231. The procedure, abridged: as §3
In a further test the test system is SK-N-SH. Described as above. Conditions: Homo sapiens, SK-N-SH, read-out: IC50 Neuroblastoma SK-N-SH. The gist of the method:
as §3

A further test relates to PC3. The test is described as above. Conditions: Homo sapiens, read-out: IC50 Prostate PC3. The gist of the method: as §3
Another test deals with SK-Mel-28. The description is as above. Conditions: Homo sapiens, SK-MEL-28, 72 hours, read-out: IC50 Melanoma SK-Mel-28. The procedure, abridged: as §3
The test system of the next test is CaCo2. Described as above. Particulars: Homo sapiens, read-out: IC50 Colorectal CaCo2. The procedure, abridged:
as §3

By IC50 is commonly meant the concentration that inhibits the measured activity by half. `Cc1c(C)n(CCCN2CCN(C)CC2)c2ccc(Cc3cccc(C(=O)N4CCN(CCc5cccc(F)c5)CC4)c3)cc12` [Compound 3504, (3-((2,3-dimethyl-1-(3-(4-methylpiperazin-1-yl)propyl)-1H-indol-5-yl)methyl)phenyl)(4-(3-fluorophenethyl)piperazin-1-yl)methanone]: the “disruption of Tpm3.1-containing actin filaments” value in [1] is “in a dose-dependent manner”. The “disruption of the total actin cytoskeleton” value in test [2] is reported as “in a dose-dependent manner”. Besides, the IC50 with DU145 (DU-145, 72 h, 0.1, 0.3, 1, 3, 10 and 30 μM, nonlinear regression sigmoidal dose-response (EC50)) is 1.4 µM; in the test with A549 (A549, 72 h, 0.1, 0.3, 1, 3, 10 and 30 μM, nonlinear regression sigmoidal dose-response (EC50)) it was 1.6 µM; with MDA-MB-231 (MDA-MB-231, 72 h, 0.1, 0.3, 1, 3, 10 and 30 μM, nonlinear regression sigmoidal dose-response (EC50)), 1.5 µM; with SK-N-SH (72 h, 0.1, 0.3, 1, 3, 10 and 30 μM, nonlinear regression sigmoidal dose-response (EC50)), 1.5 µM; in the test on PC3 (PC-3, 72 h, 0.1, 0.3, 1, 3, 10 and 30 μM, nonlinear regression sigmoidal dose-response (EC50)), 2 µM; with SK-Mel-28 (0.1, 0.3, 1, 3, 10 and 30 μM, nonlinear regression sigmoidal dose-response (EC50)), 1.1 µM. Besides, the IC50 in the test on CaCo2 (Caco-2, 72 h, 0.1, 0.3, 1, 3, 10 and 30 μM, nonlinear regression sigmoidal dose-response (EC50)) is 1.8 µM.

For the molecule `Cc1c(C)n(CCCN2CCN(C)CC2)c2ccc(Nc3cccc(C(=O)N4CCN(CCc5cccc(F)c5)CC4)c3)cc12` [Compound 3516, (3-((2,3-dimethyl-1-(3-(4-methylpiperazin-1-yl)propyl)-1H-indol-5-yl)amino)phenyl)(4-(3-fluorophenethyl)piperazin-1-yl)methanone], the “disruption of Tpm3.1-containing actin filaments” value in test [1] is listed as “in a dose-dependent manner”. Moreover, the “disruption of the total actin cytoskeleton” value in test [2] is “in a dose-dependent manner”. For the same molecule, the half-inhibitory concentration (IC50) stood at 3 µM in the test on DU145 (DU-145, 72 h, 0.03, 0.3, 3 and 30 μM, linear regression of semi-log plots); 2.2 µM with A549 (A549, 72 h, 0.03, 0.3, 3 and 30 μM, linear regression of semi-log plots); 1.3 µM with MDA-MB-231 (MDA-MB-231, 72 h, 0.03, 0.3, 3 and 30 μM, linear regression of semi-log plots); 1.4 µM in the test on SK-N-SH (72 h, 0.03, 0.3, 3 and 30 μM, linear regression of semi-log plots); 3.5 µM in the test with PC3 (PC-3, 72 h, 0.03, 0.3, 3 and 30 μM, linear regression of semi-log plots); 2.6 µM with SK-Mel-28 (0.03, 0.3, 3 and 30 μM, linear regression of semi-log plots). Also, the IC50 with CaCo2 (Caco-2, 72 h, 0.03, 0.3, 3 and 30 μM, linear regression of semi-log plots) turned out to be 2.1 µM.
